Test results as given in patent US8846928B2 (Portola Pharmaceuticals, Inc., priority 2010, dated 2014).

These compounds were tested against T1, full length active recombinant SYK enzyme (Homo sapiens, UniProt P43405) (assay: Inhibition of Syk tyrosine phosphorylation activity (LANCE TR-FRET kinase assay)).
T1 construct: full length active recombinant SYK enzyme (Millipore, Calif.); purchased Millipore
Format: biochemical

`NC(=O)c1ccc(N[C@@H]2CCCC[C@@H]2N)nc1Nc1cnc2cccnc2c1` [Example 184] and `NC(=O)c1ccc(N[C@@H]2CCCC[C@@H]2N)nc1Nc1cnc2ccccc2c1` [Example 185, 6-((1R,2S)-2-aminocyclohexylamino)-2-(quinolin-3-ylamino)nicotinamide] fall in the same range of IC50: 1 to 10 nM for the first, 1 to 10 nM for the second.

`NC(=O)c1ccc(N[C@@H]2CCCC[C@@H]2N)nc1Nc1ccc2cccnc2c1` [Example 186, 6-((1R,2S)-2-aminocyclohexylamino)-2-(quinolin-7-ylamino)nicotinamide] and `NC(=O)c1ccc(N[C@@H]2CCCC[C@@H]2N)nc1Nc1cccc(-n2cccn2)c1` [Example 192, 2-(3-(1H-pyrazol-1-yl)phenylamino)-6-((1R,2S)-2-aminocyclohexylamino)nicotinamide] fall in the same range of IC50: 1 to 10 nM for the first, 1 to 10 nM for the second.

`NC(=O)c1cc(F)c(N[C@@H]2CCCC[C@@H]2N)nc1Nc1cccc(-n2cccc2)c1` [Example 187, 2-(3-(1H-pyrrol-1-yl)phenylamino)-6-((1R,2S)-2-aminocyclohexylamino)-5-fluoronicotinamide] and `NC(=O)c1cc(F)c(N[C@@H]2CCCC[C@@H]2N)nc1Nc1ccc(-n2cccc2)cc1` [Example 188, 2-(4-(1H-pyrrol-1-yl)phenylamino)-6-((1R,2S)-2-aminocyclohexylamino)-5-fluoronicotinamide] fall in the same range of IC50: 1 to 10 nM for the first, 1 to 10 nM for the second.

Compared with `NC(=O)c1cc(F)c(N[C@@H]2CCCC[C@@H]2N)nc1Nc1cccc(-c2nccs2)c1` [Example 189, 6-((1R,2S)-2-aminocyclohexylamino)-5-fluoro-2-(3-(thiazol-2-yl)phenylamino)nicotinamide], `NC(=O)c1cc(F)c(N[C@@H]2CCCC[C@@H]2N)nc1Nc1ccnc(-n2cccn2)c1` [Example 190, 2-(2-(1H-pyrazol-1-yl)pyridin-4-ylamino)-6-((1R,2S)-2-aminocyclohexylamino)-5-fluoronicotinamide] is higher in IC50: 1 to 10 nM for the first, 10 to 100 nM for the second. The first is the more potent here.

`NC(=O)c1cc(F)c(N[C@@H](C(N)=O)C2CC2)nc1Nc1cnc2ccccc2c1` [Example 196, (R)-6-(2-amino-1-cyclopropyl-2-oxoethylamino)-5-fluoro-2-(quinolin-3-ylamino)nicotinamide] and `CC[C@@H](Nc1nc(Nc2cnc3ccccc3c2)c(C(N)=O)cc1F)C(N)=O` [Example 227, (R)-6-(1-amino-1-oxobutan-2-ylamino)-5-fluoro-2-(quinolin-3-ylamino)nicotinamide] fall in the same range of IC50: 10 to 100 nM for the first, 10 to 100 nM for the second.

`Cc1cc(Nc2nc(N[C@@H](C(N)=O)C3CC3)c(F)cc2C(N)=O)sn1` [Example 198, (R)-6-(2-amino-1-cyclopropyl-2-oxoethylamino)-5-fluoro-2-(3-methylisothiazol-5-ylamino)nicotinamide] and `CC[C@@H](Nc1nc(Nc2cc(C)ns2)c(C(N)=O)cc1F)C(N)=O` [Example 239, (R)-6-(1-amino-1-oxobutan-2-ylamino)-5-fluoro-2-(3-methylisothiazol-5-ylamino)nicotinamide] fall in the same range of IC50: 10 to 100 nM for the first, 10 to 100 nM for the second.

Compared with `CCC[C@@H](Nc1nc(Nc2cnc3ccccc3c2)c(C(N)=O)cc1F)C(N)=O` [Example 199, (R)-6-(1-amino-1-oxopentan-2-ylamino)-5-fluoro-2-(quinolin-3-ylamino)nicotinamide], `CCC[C@@H](Nc1nc(Nc2ccc3ncccc3c2)c(C(N)=O)cc1F)C(N)=O` [Example 200] is higher in IC50: 1 to 10 nM for the first, 10 to 100 nM for the second.

First: CCC[C@@H](Nc1nc(Nc2ccc3cccnc3c2)c(C(N)=O)cc1F)C(N)=O [Example 201, (R)-6-(1-amino-1-oxopentan-2-ylamino)-5-fluoro-2-(quinolin-7-ylamino)nicotinamide]
Second: CC[C@@H](Nc1nc(Nc2ccc3ccccc3c2)c(C(N)=O)cc1F)C(N)=O [Example 233, (R)-6-(1-amino-1-oxobutan-2-ylamino)-5-fluoro-2-(naphthalen-2-ylamino)nicotinamide]
The IC50 of the first is higher: 100 to 1000 nM for the first, 1 to 10 nM for the second. The second is the more potent here.

`CCC[C@@H](Nc1nc(Nc2cc(C)ns2)c(C(N)=O)cc1F)C(N)=O` [Example 202, (R)-6-(1-amino-1-oxopentan-2-ylamino)-5-fluoro-2-(3-methylisothiazol-5-ylamino)nicotinamide] and `CC[C@@H](Nc1ccc(C(N)=O)c(Nc2cc(C)ns2)n1)C(N)=O` [Example 210] fall in the same range of IC50: 10 to 100 nM for the first, 10 to 100 nM for the second.

`CC[C@@H](Nc1ccc(C(N)=O)c(Nc2cnc3ccccc3c2)n1)C(N)=O` [Example 203, (R)-6-(1-amino-1-oxobutan-2-ylamino)-2-(quinolin-3-ylamino)nicotinamide] and `NC(=O)c1ccc(N[C@H](CC2CC2)C(N)=O)nc1Nc1cnc2ccccc2c1` [Example 212, (R)-6-(1-amino-3-cyclopropyl-1-oxopropan-2-ylamino)-2-(quinolin-3-ylamino)nicotinamide] fall in the same range of IC50: 1 to 10 nM for the first, 1 to 10 nM for the second.

First: CC[C@@H](Nc1ccc(C(N)=O)c(Nc2ccc3cccnc3c2)n1)C(N)=O [Example 204, (R)-6-(1-amino-1-oxobutan-2-ylamino)-2-(quinolin-7-ylamino)nicotinamide]
Second: CC[C@@H](Nc1ccc(C(N)=O)c(Nc2ccc3ncccc3c2)n1)C(N)=O [Example 205, (R)-6-(1-amino-1-oxobutan-2-ylamino)-2-(quinolin-6-ylamino)nicotinamide]
The IC50 of the first is higher: 10 to 100 nM for the first, 1 to 10 nM for the second.

`CC[C@@H](Nc1ccc(C(N)=O)c(Nc2ccc3ncsc3c2)n1)C(N)=O` [Example 206, (R)-6-(1-amino-1-oxobutan-2-ylamino)-2-(benzo[d]thiazol-6-ylamino)nicotinamide] and `CC[C@@H](Nc1ccc(C(N)=O)c(Nc2ccc3scnc3c2)n1)C(N)=O` [Example 207, (R)-6-(1-amino-1-oxobutan-2-ylamino)-2-(benzo[d]thiazol-5-ylamino)nicotinamide] fall in the same range of IC50: 10 to 100 nM for the first, 10 to 100 nM for the second.

`CC[C@@H](Nc1ccc(C(N)=O)c(Nc2ccc3c(ccn3C)c2)n1)C(N)=O` [Example 208, (R)-6-(1-amino-1-oxobutan-2-ylamino)-2-(1-methyl-1H-indol-5-ylamino)nicotinamide] and `CC[C@@H](Nc1ccc(C(N)=O)c(Nc2cccc3c2ccn3C)n1)C(N)=O` [Example 209, (R)-6-(1-amino-1-oxobutan-2-ylamino)-2-(1-methyl-1H-indol-4-ylamino)nicotinamide] fall in the same range of IC50: 10 to 100 nM for the first, 10 to 100 nM for the second.

Compared with `Cc1cc(Nc2nc(N[C@H](CC3CC3)C(N)=O)ccc2C(N)=O)sn1` [Example 211, (R)-6-(1-amino-3-cyclopropyl-1-oxopropan-2-ylamino)-2-(3-methylisothiazol-5-ylamino)nicotinamide], `NC(=O)c1ccc(N[C@H](CC2CC2)C(N)=O)nc1Nc1ccc2ncccc2c1` [Example 213, (R)-6-(1-amino-3-cyclopropyl-1-oxopropan-2-ylamino)-2-(quinolin-6-ylamino)nicotinamide] is lower in IC50: 10 to 100 nM for the first, 1 to 10 nM for the second. The second is the more potent here.

First: NC(=O)c1ccc(N[C@H](CC2CC2)C(N)=O)nc1Nc1ccc2cccnc2c1 [Example 214, (R)-6-(1-amino-3-cyclopropyl-1-oxopropan-2-ylamino)-2-(quinolin-7-ylamino)nicotinamide]
Second: CC[C@@H](Nc1nc(Nc2cnc3cccnc3c2)c(C(N)=O)cc1F)C(N)=O [Example 236, (R)-6-(1-amino-1-oxobutan-2-ylamino)-5-fluoro-2-(1,5-naphthyridin-3-ylamino)nicotinamide]
The IC50 of the first is lower: 10 to 100 nM for the first, 100 to 1000 nM for the second.

`Cc1cc(Nc2cc(N[C@@H](C(N)=O)C3CC3)c(F)cc2C(N)=O)sn1` [Example 215, (R)-4-(2-amino-1-cyclopropyl-2-oxoethylamino)-5-fluoro-2-(3-methylisothiazol-5-ylamino)benzamide] and `CC[C@@H](Nc1nc(Nc2cncc(C)c2)c(C(N)=O)cc1F)C(N)=O` [Example 235, (R)-6-(1-amino-1-oxobutan-2-ylamino)-5-fluoro-2-(5-methylpyridin-3-ylamino)nicotinamide] fall in the same range of IC50: 10 to 100 nM for the first, 10 to 100 nM for the second.

`CC[C@@H](Nc1nc(Nc2cnc3ncccc3c2)c(C(N)=O)cc1F)C(N)=O` [Example 228, (R)-6-(1-amino-1-oxobutan-2-ylamino)-5-fluoro-2-(1,8-naphthyridin-3-ylamino)nicotinamide] and `CC[C@@H](Nc1nc(Nc2ccc3c(cnn3C)c2)c(C(N)=O)cc1F)C(N)=O` [Example 241, (R)-6-(1-amino-1-oxobutan-2-ylamino)-5-fluoro-2-(1-methyl-1H-indazol-5-ylamino)nicotinamide] fall in the same range of IC50: 10 to 100 nM for the first, 10 to 100 nM for the second.

First: CC[C@@H](Nc1nc(Nc2ccc3nccn3c2)c(C(N)=O)cc1F)C(N)=O [Example 229, (R)-6-(1-amino-1-oxobutan-2-ylamino)-5-fluoro-2-(H-imidazo[1,2-a]pyridin-6-ylamino)nicotinamide]
Second: CC[C@@H](Nc1nc(Nc2ccn3ccnc3c2)c(C(N)=O)cc1F)C(N)=O [Example 230, (R)-6-(1-amino-1-oxobutan-2-ylamino)-5-fluoro-2-(H-imidazo[1,2-a]pyridin-7-ylamino)nicotinamide]
The IC50 of the first is lower: 10 to 100 nM for the first, 100 to 1000 nM for the second. The first is the more potent here.

First: CC[C@@H](Nc1nc(Nc2cccc(OC)c2)c(C(N)=O)cc1F)C(N)=O [Example 231, (R)-6-(1-amino-1-oxobutan-2-ylamino)-5-fluoro-2-(3-methoxyphenylamino)nicotinamide]
Second: CC[C@@H](Nc1nc(Nc2cncc(OC)c2)c(C(N)=O)cc1F)C(N)=O [Example 232, (R)-6-(1-amino-1-oxobutan-2-ylamino)-5-fluoro-2-(5-methoxypyridin-3-ylamino)nicotinamide]
The IC50 of the first is lower: 10 to 100 nM for the first, 100 to 1000 nM for the second.

First: CC[C@@H](Nc1nc(Nc2ccc3ncsc3c2)c(C(N)=O)cc1F)C(N)=O [Example 234, (R)-6-(1-amino-1-oxobutan-2-ylamino)-5-fluoro-2-(benzo[d]thiazol-6-ylamino)nicotinamide]
Second: CC[C@@H](Nc1nc(Nc2ccc3c(c2)OCO3)c(C(N)=O)cc1F)C(N)=O [Example 237, (R)-6-(1-amino-1-oxobutan-2-ylamino)-5-fluoro-2-(benzo[d][1,3]dioxol-5-ylamino)nicotinamide]
The IC50 of the first is lower: 10 to 100 nM for the first, 100 to 1000 nM for the second. The first is the more potent here.

Work on `CC[C@@H](Nc1nc(Nc2cccc3c2cnn3C)c(C(N)=O)cc1F)C(N)=O` [Example 240, (R)-6-(1-amino-1-oxobutan-2-ylamino)-5-fluoro-2-(1-methyl-1H-indazol-4-ylamino)nicotinamide] yielded an IC50 of 100 to 1000 nM.
